Data reported in US4020111A, “Propynyloxy alkyl arene insecticides” (priority 1975, dated 1977).

Experiments:
[1] = system: IN/WHO strain house flies; assay: topical application test, percent kill after 24 hours, IN/WHO strain; type: in vivo, house fly (susceptible IN/WHO strain)
Protocol: (§1) In Table IX, and in the tables following it, the doses of topically applied insecticides and of synergists unless otherwise noted are expressed as micrograms per fly (μg/fly).
The synergistic effect of O-(2-propynyl) oximes with mobam was determined from topical application tests on susceptible, female, IN/WHO strain house flies and from tests on resistant, female, Rutgers A strain house flies. The synergist and insecticide were dissolved in ACS Grade acetone in such quantities that a 1.0μ liter volume applied to the thorax of 3-to-5 day old CO2 -anesthetized female adult house flies contained the desired dosage. After being treated, the flies were confined, 10 to a plaster petri dish, with 3-5 dishes/treatment, and held for 24-hr. observation of mortality. Reconstituted skim milk on cotton dental wicks was provided during the holding period. The percent kills after 24 hours are shown in Table X for the IN/WHO strain and Table XI for the Rutgers A strain.
The synergistic effect of benzyl 2-propynyl ethers with mobam was determined from topical application tests on IN/WHO and Rutgers A strain houseflies, following the procedure of Example 5. The percent kills after 24 hours are shown in Table XIV for the IN/WHO strain and in Table XV for the Rutgers A strain.
The effects of varying the insecticide dose and the synergist-insecticide ratio are further illustrated, with synergist compounds II-D, II-E, II-F and Mobam insecticide, in Tables XVI, XVII and XVIII.
The synergistic effect on IN/WHO flies of synergist compound II-K with Dimetilan, pyrolan, Baygon and HRS 1422 is illustrated by the 24 hour percent mortality data in Tables XIX, XX and XXI.
The effect on IN/WHO flies of synergist compound IV-C, identified in Table IV, with mobam was determined by the topical application procedure of Example 5.
The synergistic effect with Diazinon of compounds I-B, I-D, I-F, I-G, I-H and I-I, identified in Tables I and Ia, was determined from topical application tests on IN/WHO strain houseflies and on Rutgers A strain houseflies by the procedure of Example 5. The percent kills after 24 hours are shown in Table XXV for the IN/WHO strain and Table XXVI for the Rutgers A strain.
(§2) The synergistic effect with GS 13005 of compounds I-A, I-B, I-D, I-E, I-F, I-G and I-I was determined from topical application tests to IN/WHO strain, Rutgers A strain and polyvalent CH strain houseflies using the procedures of Example 5. The percent kills of the IN/WHO strain flies after 24 hours are shown in Table XXVIII; of the Rutgers A strain, in Table XXIX; and of the polyvalent CH strain, in Table XXX. The doses of insecticide alone to the CH strain files caused 10-40% mortality.
(§3) The synergistic effect with Diazinon and GS 13005 of various of the benzyl 2-propynyl ethers identified in Tables II and IIa was determined by topical application tests on IN/WHO strain, and Rutgers A strain and polyvalent, resistant, CH strain houseflies using the procedures of Example 5. The percent kills after 24 hours of IN/WHO strain flies are shown in Table XXXI; of Rutgers A strain flies, in Table XXXII; and of CH strain flies, in Table XXXIII. The doses of insecticide alone to the CH strain flies caused 10-40% mortality.
The synergist effect on IN/WHO flies of synergist compound II-K with Gardona and Bidrin is illustrated by the 24 hour percent mortality data in Tables XXXIV and XXXV.
The synergistic effect on IN/WHO strain flies and Rutgers A strain flies of compound IV-C with GS 13005 and with Diazinon was determined by the topical application procedure of Example 5. The percent kills of IN/WHO strain flies after 24 hours are shown in Tables XXXVI and XXXVII; the percent kills of Rutgers A strain flies are shown in Tables XXXVIII and XXXIX.

mice [2] = assay: acute toxicity of Dimetilan alone and of synergist alone (intraperitoneal); type: in vivo, Swiss albino white male mice; conditions: for Lethality (number of mice dead): 48 hours, of eight mice
Protocol: To determine the acute toxicity of dimetilan alone, eight dosage levels of Dimetilan, ranging from 4 to 32 mg per kg wer applied to eight, Swiss, albino, white, male mice per dosage level. The mice weighed approximately 23 to 27 grams and were five to size weeks old. The Dimetilan was administered intraperitoneally in 0.1 ml of corn oil one hour after the administration of the same dose of corn oil alone.
To determine the acute toxicity of the synergist alone, various synergists were administered intraperitoneally at a dose of 1000 mg/kg to each of a group of eight mice. The number of animals dead at the end of 72 hours is reported in the left hand column of Table XXXXVI.

[3] = system: polyvalent resistant (CH strain) houseflies; assay: whole plant or invertebrate; type: in vivo, housefly (CH strain); conditions: Musca domestica, topical, 24 h, read-out: mortality, insecticide used without synergist
Protocol: The effect of O-(2-propynyl) oximes with Dimetilan and with GS 13798 was obtained from tests on polyvalent resistant (CH strain) houseflies that had been chilled and to the dorsal region of which was applied an acetone solution of synergist and insecticide at a ratio of two to one. Duplicate tests were performed using 10 four to five-day old female houseflies per test. After dosage, the flies were put in a plastic petri dish with cotton soaked in a sugar-water solution. These doses of insecticide used without synergist caused 10-40% mortality.
as §1
The effect of compounds II-C, II-D and II-E with Dimetilan and GS 13798 was determined, following the procedure of Example 5, from tests on polyvalent resistant (CH strain) houseflies. These doses of insecticide used without synergist caused 10-40% mortality.
as §2, §3
The synergistic effect with pyrethrum of various synergist compounds was determined by topical application tests on polyvalent, resistant CH strain houseflies following the procedure of Example 5. Application of the insecticide alone caused 10-40% mortality.

mice [4] = assay: synergism of acute toxicity of Dimetilan, GS 13005, Secobarbital and Methadone (intraperitoneal); type: in vivo, Swiss albino white male mice; conditions: 48 hours
Protocol: The synergism of the acute toxicity of Dimetilan by various synergists was determined by tests on Swiss albino, white male mice aged 5 to 6 weeks and weighing 23 to 27 grams. The synergists and insecticides were dissolved in corn oil and the drugs were dissolved in distilled water. All compounds were administered intraperitoneally by injection in the lower quadrent of the abdomen. The synergist was administered in 0.1 ml of corn oil 1 hour prior to administration of the insecticide. Eight mice were treated, per dosage, with each synergist. The mice were watched for a minimum of 6 hours while held in a glass jar with bedding individually after intraperitoneal injection of the test solutions. Lethality was noted, the animals were weighed and transferred in cages, and food and water were supplied. Control mice were given 0.1 ml of corn oil at the time of administration of the synergist to the test mice and 0.1 ml corn oil plus Dimetilan at the time of administration of the insecticide to the test mice.
By the same procedure, the synergism of acute toxicity of GS 13005, Secobarbital and 6-dimethylamino-4,4-diphenyl-3-heptanone [Methadone] was determined.

mice [5] = assay: extension of Secobarbital sleeping time by synergists; type: in vivo, Swiss albino white male mice; conditions: Secobarbital 37 mg/K; for Relative Sleeping Time: treated/control
Protocol: (§4) The selectivity of the synergist compounds of this invention is illustrated by the results of sleeping-time extension tests and of acute toxicity tests on Swiss albino white male mice.
(§5) The effect of various synergist compounds on sleeping time of sodium secobarbital [Secobarbital] and of 3,3-diethyl-5-methyl-2,4-dioxypiperidine [Noludar] was determined by administering the drug, with and without synergist, to approximately 38-day old male mice weighing from 25 to 30 grams. Synergists were administered in each of two doses, 74.0 mg/kg (dilution being 2.0 mg/0.1 ml corn oil), and 110.0 mg/kg (dilution 3.0 mg/0.1 ml oil). Secobarbital was administered at a dose of 37.0 mg/kg (dilution 1.0 mg/0.1 ml water). Noludar was administered at a dose of 110.0 mg/kg (dilution 3.0 mg/0.1 ml water). The synergist was administered one hour prior to administration of the Secobarbital or Noludar. Secobarbital and Noludar sleeping times were obtained for both the control (drug only) and the treated (synergist plus drug) mice by noting the time lapse between the administration of the drug and the recovery of the righting reflex, i.e. when the animal regains conciousness and can walk up an inclined wooden tray with coordination. The relative sleeping time (R.S.) was noted. The R.S. is the extended sleeping time in the treated mice (synergist plus drug) divided by the sleeping time in the control mice (drug only). The mean sleeping time for the treated mice and the R.S. are shown on Table XXXXIV for various synergist compounds.

mice [6] = assay: extension of Noludar sleeping time by synergists; type: in vivo, Swiss albino white male mice; conditions: Noludar 110 mg/K, synergist 110 mg/K; for Relative Sleeping Time: treated/control
Protocol: as §4, §5

[7] = system: Wilson strain house flies; type: in vivo, house fly (susceptible Wilson strain)
Protocol: The required solutions of the insecticide and of the synergist compound were prepared in acetone at a concentration of one milligram per milliliter. One-pint wide mouth glass jars were coated wiith the appropriate insecticide-synergist combination by rolling the jars containing aliquots of the appropriate solutions diluted to three milliliters with acetone to deposit, by evaporation, a film of the test materials. The flies were transferred under carbon dioxide anesthesia and held in the jar at room temperature. Perforated aluminum foil was used to cover the jars and to hold cotton saturated with 10% sugar solution. Counts were made at intervals, but the recorded mortality was based on 24-hour kill, rather than knockdown. All prostrate nonmoving flies were considered dead. A determination was then made of the contact synergistic ratio [SR], which is the ratio of the LC50 of insecticide alone to the LC50 of the insecticide when applied together with the synergist. The LC50 of the insecticide was estimated from a log-probit plot of percent kill versus dosage. […] The LC50 of the combination of insecticide and synergist was determined at a synergist to insecticide parts by weight ratio of five to one.

[8] = system: German male cockroaches (Blatella Germanicus); assay: topical application to thorax, 24 hour mortality of German male cockroaches; type: in vivo, German cockroach (Blatella Germanicus)
Protocol: The synergistic effect with mobam of synergist compounds I-B, II-H, II-K and IV-C is further illustrated by the 24 hour mortality data of German male cockroaches (Blatella Germanicus) shown in Table XXXX. The synergists and insecticide were diluted in acetone and applied in small droplets to the thorax of the insect. These doses of synergist alone gave zero percent insect mortality.
The synergistic effect with GS 13005 of compounds I-B, II-H, II-K, II-P, II-Q, II-R and IV-C is illustrated by the 24 hour mortality of German male cockroaches shown in Table XXXXI. These doses of synergist alone caused zero percent insect mortality.

[9] = synergist alone at doses of Table XXXX
[10] = synergist alone at doses of Table XXXXI
[11] = Dimetilan 8 mg/kg + synergist 80 mg/kg ip, of eight mice
[12] = Dimetilan 8 mg/kg + synergist 240 mg/kg ip, of eight mice

| SMILES | Mean Sleeping Time (mice [5]; synergist 74 mg/K) [min] | Relative Sleeping Time (mice [5]; synergist 74 mg/K) | Mean Sleeping Time (mice [5]; synergist 110 mg/K) [min] | Relative Sleeping Time (mice [5]; synergist 110 mg/K) | Mean Sleeping Time (mice [6]) [min] | Relative Sleeping Time (mice [6]) | insect mortality, synergist alone [8, 9] | insect mortality, synergist alone [8, 10] | number of mice dead (mice [4]; [11]) | number of mice dead (mice [4]; [12]) | other results |
| --- | --- | --- | --- | --- | --- | --- | --- | --- | --- | --- | --- |
| Cc1cc(OC(=O)N(C)C)nn1C(=O)N(C)C [Dimetilan, 1-(dimethylcarbamoyl)-5-methyl-3-pyrazolyl dimethylcarbamate] | – | – | – | – | – | – | – | – | – | – | 24 hour percent mortality ([1]; Dimetilan alone 0.031 μg/fly): 0%; 24 hour percent mortality ([1]; Dimetilan alone 0.063 μg/fly): 17%; 24 hour percent mortality ([1]; Dimetilan alone 0.13 μg/fly): 43%; 24 hour percent mortality ([1]; Dimetilan alone 0.25 μg/fly): 100%; Lethality (number of mice dead) (mice [2]; Dimetilan alone 4.0 mg/kg ip): 0; Lethality (number of mice dead) (mice [2]; Dimetilan alone 8.0 mg/kg ip): 0; Lethality (number of mice dead) (mice [2]; Dimetilan alone 12.0 mg/kg ip): 1; Lethality (number of mice dead) (mice [2]; Dimetilan alone 16.0 mg/kg ip): 3; Lethality (number of mice dead) (mice [2]; Dimetilan alone 20.0 mg/kg ip): 4; Lethality (number of mice dead) (mice [2]; Dimetilan alone 24.0 mg/kg ip): 7; Lethality (number of mice dead) (mice [2]; Dimetilan alone 28.0 mg/kg ip): 8; Lethality (number of mice dead) (mice [2]; Dimetilan alone 32.0 mg/kg ip): 8; dose level just below that at which Dimetilan alone showed lethality (mice [2]; mice, ip): 8 mg/kg; mortality at 2 µg/fly [3]: 10 to 40%; number of mice dead (mice [4]; control: Dimetilan 8 mg/kg with 0.1 ml oil, 80 mg/kg): 0; number of mice dead (mice [4]; control: Dimetilan 8 mg/kg with 0.1 ml oil, 240 mg/kg): 0 |
| C#CCON=Cc1cccc([N+](=O)[O-])c1 [I-B] | 54 | 1.5 | 106 | 1.7 | 70 | 2.4 | zero | zero | 1 | 6 | Contact Synergistic Ratio, Carbaryl (LC50 insecticide alone / LC50 with synergist) ([7]; in vivo): 270; Contact Synergistic Ratio, Pyrolan (LC50 insecticide alone / LC50 with synergist) ([7]; pyrolan, synergist to insecticide 5:1 by weight, 24 h): 35 |
| C#CCOCc1cccc2ccccc12 [II-R, α-naphthylmethyl 2-propynyl ether] | 35 | 1.2 | 96 | 1.6 | 49 | 1.7 | – | zero | 0 | 2 | – |
| C#CCOC(c1ccc(Cl)cc1)C(C)[N+](=O)[O-] (stereo not drawn) [IV-C] | 112 | 4.7 | – | – | 74 | 2.5 | zero | zero | 5 | 7 | – |
